Source: paper PMC8062000, “High-throughput screening of the ReFRAME, Pandemic Box, and COVID Box drug repurposing libraries against SARS-CoV-2 nsp15 endoribonuclease to identify small-molecule inhibitors of viral activity” (PLoS ONE, 2021)
Values joined by “and” are separate entries in the source; they are usually repeats but may differ in a detail not shown here. Equal entries are not always repeated. Where two headings read alike, the source gives them in different places.

Legend:
[1] = target: T1, SARS-CoV-2 nsp15 endoribonuclease (endoU) (Severe acute respiratory syndrome coronavirus 2, UniProt P0DTD1); assay: biochemical; assay type: biochemical; conditions: for inhibition at 10 µM: read-out: 1° FRET Assay % inhibition
[2] = Amplex Red redox-cycling counter screen (H2O2 generation with DTT); conditions: 1 mM DTT; compared with redox-cycling reference DA-3003-1
SARS-CoV-2 nsp15 [3] = target: T2, SARS-CoV-2 nsp15 (Severe acute respiratory syndrome coronavirus 2, UniProt P0DTD1); assay type: binding
SARS-CoV-2 nsp15 [4] = target: T2, SARS-CoV-2 nsp15; assay: Native MS (CID/SID) ligand binding to nsp15
Source text: In native MS, nsp15 was electrosprayed from non-denaturing ammonium acetate solution in the presence of an inhibitor. Inhibitor binding can be evaluated by monitoring the increase in mass of the inhibitor-nsp15 complex compared to the apo (protein with no ligand) nsp15 protein. […] Collision-induced dissociation (CID), widely available in commercial mass spectrometers, involves acceleration of protein ions into a pressurized collision cell. Upon CID, the internal energy of the protein increases from multiple collisions with neutral gas molecules.
By increasing the acceleration voltage to 120V, CID and SID of the nsp15 hexamer both released primarily monomeric species (Fig 6B and 6C), with SID resulting in lower charged monomers and additional dimers/trimers. […] The peak cluster centered at 41.2 kDa is the apo protein (sequence mass and salt adducts).
Recombinant nsp15 was buffer exchanged into 100 mM ammonium acetate (pH adjusted to 7.5 using ammonium hydroxide) using size exclusion spin columns (Zeba Micro Spin Desalting Columns, 7k MWCO, 75 μL) following manufacturer’s protocol. The protein solution was then diluted to 5 μM, supplemented with 10 μM Mn(II) acetate, and mixed with ligands at desired concentrations. […]

[5] = Cytotoxicity in Vero 76 cells (CPE assay toxicity wells); conditions: African green monkey
[6] = Cytotoxicity in Caco-2 cells; conditions: human
[7] = system: SARS-CoV-2 (isolate USA WA1/2020); assay: microbe, parasite or virus in culture; assay type: cell-based; conditions: Severe acute respiratory syndrome coronavirus 2; Calu-3, MOI = 0.5, 48 h, immunostaining; read-out: EC50 (infection)
SARS-CoV-2 [8] = assay: microbe, parasite or virus in culture; assay type: cell-based; conditions: for protection against viral CPE: Vero 76
[9] = Cell viability in Calu-3 cells (cell number per well); conditions: human, CC50, Calu-3, 48 h
SARS-CoV-2 [10] = assay: microbe, parasite or virus in culture; assay type: cell-based; conditions: Severe acute respiratory syndrome coronavirus 2, read-out: EC90 (concentration that reduces viral replication by 90%); Caco-2, microscopic observation
[11] = Mammalian cytotoxicity assay, HepG2; conditions: human, HepG2 hepatocyte cells
[12] = 100 mg/kg oral dose, Sprague-Dawley rats, no reference given, cited from earlier work
[13] = target: T1, SARS-CoV-2 nsp15 endoribonuclease (endoU); assay: biochemical; conditions: 0.78 μM nsp15, 500 ng poly(rA) substrate, 2 h; n = 3; read-out: RNA Cleavage Assay IC50
[14] = mice, 100 mg/kg per day for 6 months ref 37; cited from earlier work
[15] = Mammalian cytotoxicity assay, CRL-8155; conditions: human, CRL-8155 lymphocyte cells
[16] = Solubility observation in DMSO and assay buffer; conditions: diluted in assay buffer
SARS-CoV-2 [17] = system: SARS-CoV-2; parameters: method as in PMID 33564093; conditions: at 50 μM concentrations ref 15; cited from earlier work
[18] = primary screen at 10 μM, 25 nM nsp15, 0.5 μM substrate, 1 h

With `Cc1cc(N)c2cc(NC(=O)Nc3ccc4nc(C)cc(N)c4c3)ccc2n1` [Aminoquinuride] the inhibition at 10 µM [1] was 95%.

For `O=C1C(NC2CCCCCCC2)=CC(=O)c2ncccc21` [Azaquinone], the “Amplex Red Assay % Activity (redox cycling)” value (“Amplex Red Assay % Activity” below) [2] was >100%, the “DSF Assay ΔTm” value (SARS-CoV-2 nsp15 [3]) was -11.4 °C and the “nsp15 Tm lowered by” value (SARS-CoV-2 nsp15 [3]) was “more than 10 °C”. The inhibition at 10 µM [1, 18] was 80%.

For `Cc1nc2c(s1)C(=O)C=C(NCCN(C)C)C2=O` [BN-82685], the “Amplex Red Assay % Activity” value [2] was >100%, the “DSF Assay ΔTm” value (SARS-CoV-2 nsp15 [3]) was -11.3 °C and the “nsp15 Tm lowered by” value (SARS-CoV-2 nsp15 [3]) was “more than 10 °C”. It also gave an inhibition at 10 µM [1, 18] of 76%.

In the case of `CC1(C)C(=O)N=C2C1=C(O)C(=O)c1ccccc12` [BVT-948], the “DSF Assay ΔTm” value (SARS-CoV-2 nsp15 [3]) is reported as -11.8 °C, the “nsp15 Tm lowered by” value (SARS-CoV-2 nsp15 [3]) is reported as “more than 10 °C” and the “1° FRET Assay % inhibition” value [1] is reported as 90%. For the same compound, the IC50 ([1]; read-out: 2° FRET Assay IC50) was 4.96 µM and the IC50 ([1]; read-out: 3° FRET Assay IC50) was 0.1 µM.

With `CC(=O)[C@]1(O)Cc2c(O)c3c(c(O)c2[C@@H](O[C@H]2C[C@H](N)[C@H](O)[C@H](C)O2)C1)C(=O)c1c(O)cccc1C3=O` [Carubicin] the inhibition at 10 µM [1] was 56%.

In the case of `CC(C)(O/N=C(\C(=O)N[C@@H]1C(=O)N2C(C(=O)[O-])=C(C[n+]3ccccc3)CS[C@H]12)c1csc(N)n1)C(=O)O` [Ceftazidime], the IC50 ([1]; 2° FRET Assay IC50) is reported as > 10 µM, the IC50 ([1]; 3° FRET Assay IC50) is reported as 72 µM and the inhibition at 10 µM [1, 18] is reported as 66%.

In the case of `COc1cccc2c1C(=O)c1c(O)c3c(c(O)c1C2=O)C[C@@](O)(C(=O)CO)C[C@@H]3O[C@H]1C[C@H](N)[C@H](O)[C@H](C)O1` [Doxorubicin], the IC50 ([1]; 2° FRET Assay IC50) is reported as 7.46 µM and the IC50 ([1]; 3° FRET Assay IC50) is reported as 9.29 µM.

With `O=C(Nc1ccc(O)c(O)c1)c1cccc(O)c1O` [Exebryl-1] the “DSF Assay ΔTm” value (SARS-CoV-2 nsp15 [3]) was 0.1 °C, the Kd (SARS-CoV-2 nsp15 [4]) was ~12 µM and the CC50 at 5 days ([5]; CC50, Vero 76, microscopic observation) was 52 µM. For the same compound, the CC50 at 5 days ([5]; CC50, Vero 76 cell growth, neutral red staining) was 57 µM, the CC50 [6] was 61 µM and the EC50 [7] was 65.6 µM. For the same compound, the EC50 (SARS-CoV-2 [8]; Severe acute respiratory syndrome coronavirus 2, Vero 76, read-out: EC50 (concentration that reduces CPE by 50%)) was 10 µM, the EC50 (SARS-CoV-2 [8]; Severe acute respiratory syndrome coronavirus 2, Vero 76, neutral red staining, read-out: EC50 (CPE)) was 16 µM and the antiviral activity (SARS-CoV-2 [8]; summary across Vero 76, Caco-2, and Calu-3 cells) was 10 to 66 µM. The CC50 at 48 h [9] was > 200 µM, the EC90 (SARS-CoV-2 [10]) was 51 µM and the CC50 at 48 h [11] was > 200 µM. The plasma concentration ([12]; at 1 h) was 9 µM, the plasma levels ([12]; by 4 h after dosing) was “below 4 μM” and the IC50 [13] was 9.27 µM. The toxicity [14] was “without evident toxicity”, the CC50 at 48 h [15] was 37.8 µM and the inhibition at 10 µM [1, 18] was 57%.

For `CCc1ccccc1NC(=O)Oc1ccc2c(c1)[C@]1(C)CCN(C)O[C@@H]1N2C` [Ganstigmine], the inhibition at 10 µM [1] was 51%.

With `O=C(Nc1cccc(C2=NCCN2)c1)c1ccc(-c2ccc(C(=O)Nc3cccc(C4=NCCN4)c3)cc2)cc1` [MMV1580853] the “Amplex Red Assay % Activity” value [2] was < 25%, the “DSF Assay ΔTm” value (SARS-CoV-2 nsp15 [3]) was 0.1 °C and the “binding detected on CID- or SID-released monomers” value (SARS-CoV-2 nsp15 [4]; ~10 μM compound, 5 μM nsp15) was “too weak to be detected”. For the same compound, the “protection against viral CPE” value (SARS-CoV-2 [8]) was “Neither Piroxantrone nor MMV1580853 exhibited protection against viral CPE”, the solubility [16] was “poor solubility” and the CC50 at 48 h [11] was > 80 µM. The CC50 at 48 h [15] was > 80 µM and the inhibition at 10 µM [1, 18] was 62%.

For `C/C1=C2/[N-][C@H]([C@H](CC(N)=O)[C@@]2(C)CCC(=O)NC[C@@H](C)OP(=O)([O-])O[C@H]2[C@@H](O)[C@@H](n3cnc4cc(C)c(C)cc43)O[C@@H]2CO)[C@]2(C)N=C(/C(C)=C3N=C(/C=C4N=C1[C@@H](CCC(N)=O)C\4(C)C)[C@@H](CCC(N)=O)[C@]\3(C)CC(N)=O)[C@@H](CCC(N)=O)[C@]2(C)CC(N)=O.[CH3-].[Co+3]` [Mecobalamin], the “DSF Assay ΔTm” value (SARS-CoV-2 nsp15 [3]) was -3.4 °C, the “1° FRET Assay % inhibition” value [1, 18] was 58% and the IC50 ([1]; secondary dose response, 8-point 3-fold, top concentration 10 μM, read-out: 2° FRET Assay IC50) was 3.34 µM. The IC50 ([1]; tertiary dose response, expanded concentration range, read-out: 3° FRET Assay IC50) was 18.3 µM.

In the case of `C[C@@H]1CNS(=O)(=O)N(c2ccc3c(C#N)nccc3c2)C1` [PF-06260414], the “1° FRET Assay % inhibition” value [1] is reported as 74%, the IC50 ([1]; read-out: 2° FRET Assay IC50) is reported as 7.69 µM and the IC50 ([1]; read-out: 3° FRET Assay IC50) is reported as > 80 µM.

In the case of `NCCCNc1ccc2c3c(nn2CCNCCO)-c2c(O)ccc(O)c2C(=O)c13` [Piroxantrone], the “DSF Assay ΔTm” value (SARS-CoV-2 nsp15 [3]) is reported as -1.1 °C, the “protection against viral CPE” value (SARS-CoV-2 [8]) is reported as “Neither Piroxantrone nor MMV1580853 exhibited protection against viral CPE” and the CC50 at 48 h [11] is reported as 33.9 µM. For the same compound, the CC50 at 48 h [15] was < 1.25 µM and the inhibition at 10 µM [1, 18] was 74%.

In the case of `COC1=C(N)C(=O)c2nc(-c3nc(C(=O)O)c(C)c(-c4ccc(OC)c(OC)c4O)c3N)ccc2C1=O` [Streptonigrin], the “Amplex Red Assay % Activity” value [2] is reported as >100%, the “DSF Assay ΔTm” value (SARS-CoV-2 nsp15 [3]) is reported as -11.5 °C and the “nsp15 Tm lowered by” value (SARS-CoV-2 nsp15 [3]) is reported as “more than 10 °C”. For the same compound, the “3° FRET Assay IC50” value [1] was “sub-micromolar”, the IC50 ([1]; 2° FRET Assay IC50) was 4.25 µM and the IC50 ([1]; 3° FRET Assay IC50) was 0.29 µM. The inhibition at 10 µM [1] was 89%.

For `O=C1NC(=O)/C(=C\c2ccccc2)C2=C1CCCC2` [Tesimide], the “DSF Assay ΔTm” value (SARS-CoV-2 nsp15 [3]) was -11.7 °C, the “nsp15 Tm lowered by” value (SARS-CoV-2 nsp15 [3]) was “more than 10 °C” and the inhibition at 10 µM [1, 18] was 82%.

In the case of `Cc1cc(-c2ccc(/N=N/c3c(S(=O)(=O)O)cc4cc(S(=O)(=O)O)cc(N)c4c3O)c(C)c2)ccc1/N=N/c1c(S(=O)(=O)O)cc2cc(S(=O)(=O)O)cc(N)c2c1O` [Trypan Blue], the IC50 ([1]; 2° FRET Assay IC50) is reported as 5.08 µM and 7.78 µM, the “1° FRET Assay % inhibition” value [1, 18] is reported as 51% and the inhibition at 10 µM [1, 18] is reported as 58%.

With `COc1cccc2c1C(=O)c1c(O)c3c(c(O)c1C2=O)C[C@@](O)(C(=O)CO)C[C@@H]3O[C@H]1C[C@H](N)[C@H](O[C@@H]2CCCCO2)[C@H](C)O1` [pirarubicin] the “DSF Assay ΔTm” value (SARS-CoV-2 nsp15 [3]) was 0.4 °C, the IC50 ([1]; 2° FRET Assay IC50) was 3.78 µM and the IC50 ([1]; 3° FRET Assay IC50) was 5.98 µM. It also gave an inhibition at 10 µM [1] of 66%.

In the case of `N=C1CCCN1Cc1nc(O)nc(O)c1Cl` [tipiracil], the antiviral activity (SARS-CoV-2 [17]) is given as “only minimal antiviral activity”.

`CC(=O)O[C@H]1C[C@@H]2CC[C@@H]3[C@H](CC[C@@]4(C)[C@H]3C[C@H]([N+]3(C)CCCCC3)[C@@H]4OC(C)=O)[C@@]2(C)C[C@@H]1N1CCCCC1` [vecuronium bromide] showed an inhibition at 10 µM [1] of 61%.

With `CC1(C)CCC2=C(O1)c1ccccc1C(=O)C2=O` [β-Lapachone] the “Amplex Red Assay % Activity” value [2] was >100%, the “DSF Assay ΔTm” value (SARS-CoV-2 nsp15 [3]) was -11.5 °C and the “nsp15 Tm lowered by” value (SARS-CoV-2 nsp15 [3]; negative Tm shift, 100 μM ligand) was “more than 10 °C”. The “3° FRET Assay IC50” value [1] was “sub-micromolar”, the IC50 ([1]; 2° FRET Assay IC50) was 2.78 µM and the IC50 ([1]; 3° FRET Assay IC50) was 0.31 µM. It also gave an inhibition at 10 µM [1] of 73%.
